Values of other authors, collected in the PKSmart pharmacokinetics tables (Seal et al. 2025).
Where a SMILES comes first, the peptide text is derived from it. [ ]: non-standard residue; d: D form. The star is where a group is joined. ξ: configuration not given here. ξNMe2Val = CC(C)C(C(=O)*)N(C)C; NMeV = CN[CH](C(=O)O)C(C)C; NHtBu = CC(C)(C)N*

Assay: Lombardo, Berellini, Obach 2018, Drug Metab Dispos 46:1466, doi 10.1124/dmd.118.082966
Conditions: human; for MRT / Vd / clearance / half-life: in vivo, iv; for fraction unbound: plasma

Row | SMILES | MRT | Vd | clearance | half-life | fraction unbound
1 | CN(C(=O)CO)c1c(I)c(C(=O)NC[C@H](O)CO)c(I)c(C(=O)NC[C@H](O)CO)c1I | 2.7 h | 0.23 L/kg | 1.4 mL/min/kg | 2.3 h | 1
2 | CNCC[C@H](Oc1cccc2ccccc12)c1cccs1 |  |  | 8.57 mL/min/kg | 12 h | 0.04
3 | COc1cc2c(cc1OC)CN(CCc1ccc(NC(=O)c3cc(OC)c(OC)cc3NC(=O)c3cnc4ccccc4c3)cc1)CC2 | 38 h | 6.4 L/kg | 2.8 mL/min/kg | 29 h | 
4 | CC(=O)OC1=C2C(C)[C@@H](OC(=O)C(O)C(NC(=O)OC(C)(C)C)c3ccccc3)C[C@@](O)([C@@H](OC(=O)c3ccccc3)[C@@H]3[C@]4(OC(C)=O)CO[C@@H]4C[C@@H]4C[C@@]43C1=O)C2(C)C (stereo partly specified) | 26.1 h | 17 L/kg | 10.8 mL/min/kg | 33.9 h | 
5 | CCCCc1nc(Cl)c(CO)n1Cc1ccc(-c2ccccc2-c2nnn[nH]2)cc1 | 0.75 h | 0.37 L/kg | 8.2 mL/min/kg | 1.8 h | 
6 | Cc1nnc(SCC2=C(C(=O)O)N3C(=O)C(NC(=O)Cn4cc(Cl)c(=O)c(Cl)c4)[C@H]3SC2)s1 (stereo partly specified) | 2.3 h | 0.13 L/kg | 0.95 mL/min/kg | 1.91 h | 
7 | COCCN1CCN(Cc2ccc(-c3n[nH]c4c3C(=O)c3c(NC(=O)NN5CCOCC5)cccc3-4)cc2)CC1 | 8.5 h | 5.9 L/kg | 11.5 mL/min/kg | 9.9 h | 
8 | O[C@@H](CNC[C@H](O)[C@H]1CCc2cc(F)ccc2O1)[C@@H]1CCc2cc(F)ccc2O1 | 13 h | 11 L/kg | 14 mL/min/kg | 10 h | 0.02
9 | COc1cc(NC(C)CCCN)c2ncccc2c1 (stereo unspecified) | 11 h | 4 L/kg | 5.8 mL/min/kg | 7.1 h | 
10 | CC(C(=O)O)c1ccc(C(=O)c2ccccc2)s1 (stereo unspecified) | 2.3 h | 0.08 L/kg | 0.62 mL/min/kg | 2.1 h | 0.015
11 | O=C1c2cccc3c2[C@H](CCC3)CN1[C@@H]1CN2CCC1CC2 | 40 h | 6.3 L/kg | 2.6 mL/min/kg | 39 h | 0.38
12 | CNS(=O)(=O)Cc1ccc2[nH]cc(CCCN3CCN(c4ncncc4OC)CC3)c2c1 | 2.25 h | 0.87 L/kg | 6.44 mL/min/kg | 5.26 h | 
13 | Nc1c(CC(=O)O)cccc1C(=O)c1ccc(Br)cc1 | 1.5 h | 0.11 L/kg | 1.3 mL/min/kg | 2.6 h | 0.0011
14 | O=C(O)CSc1nnc(Br)n1-c1ccc(C2CC2)c2ccccc12 | 3.33 h | 0.29 L/kg | 1.43 mL/min/kg | 5 h | 0.02
15 | COc1cccc2c1C(=O)c1c(O)c3c(c(O)c1C2=O)C[C@@](O)(C(C)=O)C[C@@H]3O[C@H]1C[C@H](N)[C@H](O)[C@H](C)O1 | 11.2 h | 32 L/kg | 47.6 mL/min/kg | 14.2 h | 0.06
16 | CCC/N=C1\S/C(=C\c2ccc(OC[C@H](O)CO)c(Cl)c2)C(=O)N1c1ccccc1C | 42.6 h | 2.28 L/kg | 0.9 mL/min/kg | 32.9 h | 
17 | O=P(O)(O)OC(Cn1cncn1)(Cn1cncn1)c1ccc(F)cc1F | 2 h | 0.15 L/kg | 1.3 mL/min/kg | 2.1 h | 0.042
18 | Cc1nnc(SCC2=C(C(=O)O)N3C(=O)C(NC(=O)C(O)c4ccccc4)[C@H]3SC2)s1 (stereo partly specified) | 0.83 h | 0.13 L/kg | 2.6 mL/min/kg | 1 h | 
19 | CN[C@@H]1[C@@H](O)[C@@H](O[C@@H]2[C@@H](O)[C@H](O[C@H]3OC(CNCCO)=CC[C@H]3N)[C@@H](N)C[C@H]2NC(=O)C(O)CCN)OC[C@]1(C)O (stereo partly specified) | 3.2 h | 0.22 L/kg | 1.14 mL/min/kg | 3.4 h | 0.84
20 | COc1cc(CC(=O)NCC(=O)N(CCC(=O)O)Cc2ccc(OC)c(OC)c2)ccc1NC(=O)Nc1ccccc1C | 0.38 h | 0.25 L/kg | 11 mL/min/kg | 1.6 h | 
21 | CC(C)C(NC(=O)C(C(C)C)N(C)C)C(=O)N(C)C(C(=O)N1CCCC1C(=O)N1CCCC1C(=O)NC(C)(C)C)C(C)C (stereo unspecified) (ξNMe2Val-V[NMeV]PP-NHtBu; configuration not given here) | 0.58 h | 0.33 L/kg | 9.6 mL/min/kg | 0.57 h | 
22 | Oc1cc2c(cc1O)[C@H](Cc1cccc3ccccc13)NCC2 | 0.12 h | 1.09 L/kg | 156 mL/min/kg | 1.58 h | 
23 | CN[C@@H]1C[C@H]2OC(C)([C@@H]1OC)n1c3ccccc3c3c4c(c5c6ccccc6n2c5c31)C(=O)N[C@@H]4O | 680 h | 0.15 L/kg | 0.0037 mL/min/kg | 790 h | 0.0022
